According to patent EP3628659A1, “SELENOESTER-CONTAINING COMPOUNDS FOR USE IN THE TREATMENT OF MICROBIAL INFECTIONS OR COLORECTAL CANCER” (Consejo Superior De Investigaciones Científicas, priority 2018, dated 2020):

Key:
[1] = tested on: Steinernema feltiae; test: Nematicidal activity (viability count), Steinernema feltiae; assay type: in vivo; conditions: IC50 class, tested at 50, 100, 150 and 200 µM, viability at 24 h
Protocol: (§1) The compounds were tested for their antifungal and nematicidal properties against the fungi Candida albicans and Saccharomyces cerevisiae, and against the nematode Steinernema feltiae.
The soil nematodes S. feltiae were purchased from Sautter and Stepper GmbH (Ammerbuch, Germany) and stored at 4 °C in the dark. Before each experiment, fresh samples of nematodes were purchased and stored in the fridge upon arrival and used for a maximum of six days. To perform the assay, 200 mg of nematodes was reconstituted in 50 mL of phosphate buffered saline (PBS) (pH = 7.4) to form a homogenous suspension to revive the nematodes. Afterwards, the individual suspensions were allowed to rest at room temperature. The sedimentation was avoided with occasional shaking in moderate light and at room temperature (25 °C) for 30 min. Viability of the nematodes was determined by counting the live and dead nematodes under a light microscope (TR 200, VWR International, Leuven, Belgium) at four-fold magnification. An initial viability value of more than 90 percent was considered necessary to perform the experiments.
Sample solutions were added into the wells of a 96-well plate to achieve at final concentrations of 50,100, 150, and 200 µM. Afterwards, 10 µL of nematode suspension was added to each well and the final volume in each well was adjusted to 100 µL with phosphate buffered saline (PBS) (pH = 7.4). PBS was used in the negative control and ethanol in the positive control. Viability was determined at 0 h and 24 h by counting the live and dead nematodes, whereby 50 µL of lukewarm water (40 °C) were added to each well to stimulate the nematodes for the 24 h reading. Each experiment was performed independently in triplicate and on three different occasions (n = 9).
(§2) For the three organisms considered (C. albicans, S. cerevisiae and S. feltiae), the inhibitory concentration 50% (IC50) is defined as the concentration that inhibits the viability of the respective organism to a 50% of the viability determined for the negative control.

[2] = tested on: Staphylococcus aureus 25923 ATCC; test: MIC determination (CLSI), S. aureus 25923 ATCC; assay type: cell-based; conditions: MIC class
Protocol: (§3) The effects exerted by different concentrations of the compounds on bacterial growth in Staphylococcus aureus 25923 ATCC, Staphylococcus aureus multidrug resistant 272123 clinical isolate (MRSA), Escherichia coli AG100 or Escherichia coli AG100 A were tested in 96-well plates. The MIC of selenocompounds was determined according to Clinical and Laboratory Standard Institute (CLSI) guidelines. The solvent used (DMSO) had no antibacterial effect. Alternatively, the MICs of oxacillin of the compounds in MRSA HEMSA 5 were determined by a broth microdilution method in cation-adjusted Mueller-Hinton Broth (MHB II) according to the recommendations of the CLSI. Results were recorded after a 20- or 24-hour incubation at 37°C.

[3] = tested on: Candida albicans; test: Antifungal activity (optical density), Candida albicans; assay type: cell-based; conditions: IC50 class, tested at 50, 100, 150 and 200 µM, OD 570 nm, 37 °C
Protocol: as §1
Fungal cell densities were determined by measuring the optical density (OD) at 570 nm at 0 h (first measurement immediately after incubation), 4 h, and 24 h after incubation at 37 °C; and using a Universal Microplate Reader, EL800, Biotech Instruments, Inc. Highland Park, Winooski, VT, USA. Compounds were dissolved in 1% DMSO and were tested at final concentrations of 50, 100, 150, and 200 µM. Nutrient Sabouraud Dextrose (SD), and Yeast Peptone Dextrose (YPD) were used as media for C. albicans, and S. cerevisiae, respectively. Ketoconazole was used as the positive control for C. albicans and S. cerevisiae. The growth culture with medium for each organism was used as the negative control. The Solvent 1% DMSO stock was used as a solvent control. All experiments were carried out in triplicate and on three different occasions (n = 9).
as §2

[4] = tested on: Staphylococcus aureus multidrug resistant 272123 clinical isolate (MRSA); assay type: cell-based; conditions: MIC class
Protocol: as §3

N#CC[Se]C(=O)c1ccc(C(=O)[Se]CC#N)cc1 [Compound 18, Se,Se-bis-(cyanomethyl) benzene-1,4-bis-(carboselenoate)]
IC50 [1]: 10 to 50 µM
Antibacterial activity Against S. aureus 25923 ATCC [2]: *** (Potent antibacterial compounds: 1 µM < MIC ≤ 10 µM)
IC50 [3]: 50 to 100 µM
Antibacterial activity Against S. aureus MRSA 272123 [4]: ** (Moderate antibacterial compounds: 10 µM < MIC ≤ 50 µM)

N#CC[Se]C(=O)c1cccc(C(=O)[Se]CC#N)c1 [Compound 19, Se,Se-bis-(cyanomethyl)benzene-1,3-bis-(carboselenoate)]
IC50 [1]: 10 to 50 µM
Antibacterial activity Against S. aureus 25923 ATCC [2]: *** (Potent antibacterial compounds: 1 µM < MIC ≤ 10 µM)
IC50 [3]: 10 to 50 µM
Antibacterial activity Against S. aureus MRSA 272123 [4]: ** (Moderate antibacterial compounds: 10 µM < MIC ≤ 50 µM)

N#CC[Se]C(=O)c1cc(C(=O)[Se]CC#N)cc(C(=O)[Se]CC#N)c1 [Compound 20, Se,Se,Se-tris-(cyanomethyl) benzene-1,3,5-tris-(carboxyselenoate)]
IC50 [1]: > 100 µM
IC50 [3]: 10 to 50 µM

CC(=O)C[Se]C(=O)c1ccc(C(=O)[Se]CC(C)=O)cc1 [Compound 22, Se,Se-bis-(2-oxopropyl) benzene-1,4-bis-(carboselenoate)]
IC50 [1]: 50 to 100 µM
Antibacterial activity Against S. aureus 25923 ATCC [2]: **** (Very potent antibacterial compounds: MIC ≤ 1 µM)
IC50 [3]: 10 to 50 µM
Antibacterial activity Against S. aureus MRSA 272123 [4]: *** (Potent antibacterial compounds: 1 µM < MIC ≤ 10 µM)

CC(=O)C[Se]C(=O)c1cccc(C(=O)[Se]CC(C)=O)c1 [Compound 23, Se,Se-bis-(2-oxopropyl) benzene-1,3-bis-(carboselenoate)]
IC50 [1]: > 100 µM
Antibacterial activity Against S. aureus 25923 ATCC [2]: **** (Very potent antibacterial compounds: MIC ≤ 1 µM)
IC50 [3]: 10 to 50 µM
Antibacterial activity Against S. aureus MRSA 272123 [4]: *** (Potent antibacterial compounds: 1 µM < MIC ≤ 10 µM)

CC(=O)C[Se]C(=O)c1cc(C(=O)[Se]CC(C)=O)cc(C(=O)[Se]CC(C)=O)c1 [Compound 24, Se,Se,Se-tris-(2-oxopropyl) benzene-1,3,5-tris-(carboxyselenoate)]
IC50 [1]: > 100 µM
Antibacterial activity Against S. aureus 25923 ATCC [2]: **** (Very potent antibacterial compounds: MIC ≤ 1 µM)
IC50 [3]: > 100 µM
Antibacterial activity Against S. aureus MRSA 272123 [4]: **** (Very potent antibacterial compounds: MIC ≤ 1 µM)
